This passage reports EC50, IC50 and outcome results from PubChem BioAssay AID179 (DTP/NCI, 2004).

The assay deals with CEM cells HIV-1 protection, formazan growth assay. As to the kind of experiment: NCI AIDS Antiviral Assay. The note with it: for IC50: measured here: growth of uninfected CEM cells. The gist of the method: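 Protection of CEM cells against HIV-1 measured as cell growth via soluble formazan read-out, with five concentrations tested on both infected and uninfected cells; failure to protect may reflect toxicity.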

Several values for one entry are separate records, joined by “and”; a condition that tells them apart may be missing. Identical values can stand only once. Activity calls are given as the source filed them.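 How the source made its calls: active means compounds giving half or more protection of infected cells from virus-caused growth loss, again on retest; inactive means the rest.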

With `C/C(=N\NC(=S)NC1CCCC1)c1ccccn1`, the EC50 is > 2 µM and the IC50 is 0.0151 µM.

As for `NC1=NC(=O)C(CC(=O)Nc2ccc([N+](=O)[O-])cc2[N+](=O)[O-])S1` (stereo unspecified), the EC50 is > 75.9 µM and the 50% inhibitory concentration (IC50) was > 75.9 µM.

Consider `CC(C)C(Sc1nc(-c2ccccc2)c(-c2ccccc2)[nH]1)C(=O)N/N=C/c1ccc(Cl)cc1` (stereo unspecified), for which the EC50 was > 74.1 µM and the IC50 is > 74.1 µM. As for `O=C1/C(=C/c2ccc(F)cc2)Cc2ccccc21`, the EC50 was > 30.2 µM and the IC50 is > 30.2 µM. In the case of `COc1ccc(S(=O)(=O)N(C)C)cc1C(=O)c1cc(S(=O)(=O)N(C)C)ccc1OC`, the EC50 is > 2.29 µM and the 50% inhibitory concentration (IC50) is > 2.29 µM.

For the compound `BrCc1cccc(C[P+](c2ccccc2)(c2ccccc2)c2ccccc2)c1`, the EC50 is > 200 µM and the IC50 came to 1.17 µM. On to `Cc1ccc2[nH]c3c(c2c1)C1CCC(C(C)(C)C)CC1C1C(=O)N(c2ccc(Oc4ccccc4)cc2)C(=O)C31` (stereo unspecified), for which the EC50 is > 200 µM and the IC50 is 10.5 µM. In the case of `CC(=O)c1nc2ccccc2n1CC(=O)c1ccc(Cl)cc1`, the EC50 was > 200 µM and the IC50 amounted to 1.35 µM.

`COc1cc2c(cc1OC)C1[C@@H](c3ccccc3)OCN1CC2` (stereo partly specified): the result was inactive. Regarding `O=C1CCCCCCC2=C1C(Sc1ccccc1)CC2` (stereo unspecified), the EC50 was > 200 µM and the concentration for half-maximal inhibition (IC50) turned out to be 30.9 µM. As to `Cc1oc(C)c2c1C(=O)N(C)C2=O`, the EC50 was > 100 µM and the IC50 was > 100 µM.

On to `CC(C)=C1C=C2CC[C@@H]3[C@](C)(CCC[C@@]3(C)C(=O)O)[C@H]2CC1`, for which the EC50 is > 200 µM and the IC50 came to 105 µM. `OC1(c2ccccc2)Oc2ccccc2C(c2ccccc2)C1c1ccccc1` (stereo unspecified): the EC50 was > 200 µM and the half-inhibitory concentration (IC50) came out at 9.55 µM. In the same order, the values of `C=C1N(c2nc(Cl)nc(Cl)n2)c2ccccc2C1(C)C` are > 200 µM and 186 µM. As for `Cc1cc(O)c2c(c1O)C(=O)C13C(=C2O)C(=O)C2C(O)C1C1C(O)C3C(=O)C3=C(O)c4c(O)cc(C)c(O)c4C(=O)C321` (stereo unspecified), the EC50 is > 45.7 µM and the half-inhibitory concentration (IC50) is 0.0977 µM. In the same order, the values of `O=Cc1ccccc1OCCCC[P+](c1ccccc1)(c1ccccc1)c1ccccc1` are > 200 µM and 2.82 µM.

Take `Cc1cc2nn(C3CCCO3)nc2cc1C` (stereo unspecified): the EC50 was > 200 µM and the half-inhibitory concentration (IC50) is > 200 µM.

As to `COc1ccc([C@H]2c3cc4c(cc3OC(O)(CO)[C@H]2C(=O)O)OCO4)c(OC)c1` (stereo partly specified) (tested in a mixture with another compound), the result was inactive. With `CC1(C)COC(CCCCCNC2=NCCCCC2)=N1`, the EC50 was > 200 µM and the IC50 was > 200 µM. Take `O=C1OCCOCCOCCOC(=O)c2ccccc2SSc2ccccc21`: the EC50 was > 200 µM and the IC50 was 33.9 µM. With `CN=c1nc2n3c(cccc3n1)NC(C)=N2`, the EC50 was > 100 µM and the IC50 is > 100 µM.

As to `C[C@H]1CCC2C(OC(=O)[C@@H]2CN(C)C)[C@]2(C)C(=O)C=CC12O` (stereo partly specified), the result was inactive. For `CC(=O)On1c(-c2ccccc2-c2nc3ccccc3n2OC(C)=O)nc2ccccc21`, the EC50 was > 200 µM and the concentration for half-maximal inhibition (IC50) is 77.6 µM. On to `CC1(C)[C@@H]2CC[C@]13CC(=O)O[C@@H]3C2`, for which the EC50 was > 724 µM and the concentration for half-maximal inhibition (IC50) was > 724 µM. As to `CC(=O)C(C(C)=O)C1c2ccccc2-n2nc(-c3ccccc3)c(O)c21` (stereo unspecified), the EC50 was > 100 µM and the 50% inhibitory concentration (IC50) worked out at 0.794 µM. Regarding `CC(C)[Si](OC1=C(C(=O)N(C)c2ccccc2Cl)CCCC1)(C(C)C)C(C)C`, the EC50 is > 200 µM and the IC50 stood at 16.6 µM. Take `O=c1c(SCc2ccc(Cl)cc2Cl)c(SCc2ccc(Cl)cc2Cl)cnn1-c1ccccc1`: the EC50 was > 46.8 µM and the IC50 is > 46.8 µM. `CC1=Nc2ccccc2NC(c2ccoc2)C1` (stereo unspecified): the EC50 is > 22.9 µM and the IC50 was > 22.9 µM. For the compound `Cc1nnc2cc(C(=O)O)c3ccccc3n2c1=O`, the EC50 is > 200 µM and the 50% inhibitory concentration (IC50) is > 200 µM. Turning to `O=C(NC(=O)c1ccccc1)NC(=O)c1ccccc1`, the EC50 was > 135 µM and the IC50 was > 135 µM. Take `CC1(C)CC2=C(SC3C=CC=CC3N2)C(=O)C1C(=O)C(N)=O` (stereo unspecified): the EC50 is > 58.9 µM and the IC50 is > 58.9 µM. As to `CC(=O)Nc1ccc(C2C(C(=O)Nc3ccccc3C)=C(C)NC(C)=C2C(=O)Nc2ccccc2C)cc1`, the EC50 was > 70.8 µM and the IC50 was > 70.8 µM. Regarding `CNC1=C2NC(=O)/C(C)=C\C=C\C(C)C(O)C(C)C(O)C(C)C(OC(C)=O)C(C)C(OC)/C=C/OC3(C)Oc4c(C)c(O)c(c(c4C3=O)C1=O)C2=O` (stereo unspecified), the EC50 was > 200 µM and the 50% inhibitory concentration (IC50) came out at 3.8 µM. For the compound `CC(=O)Oc1cc(OC(C)=O)c2c(c1C)CC[C@@H]1[C@@H]2CC[C@]2(C)[C@@H](OC(C)=O)CC[C@@H]12`, the EC50 was > 200 µM and the IC50 was found to be 18.2 µM. As to `CNc1cc[nH]c(=O)c1NC(C)=O`, the EC50 is > 1380 µM and the IC50 was > 1380 µM. Consider `CN1c2ccccc2S(=O)(=O)n2c(CCc3ccccc3)nnc21`, for which the EC50 is > 105 µM and the half-inhibitory concentration (IC50) is > 105 µM. On to `COC(=O)c1cc(C(=CCCN=[N+]=[N-])c2cc(Br)c(OC)c(C(=O)OC)c2)cc(Br)c1OC`, for which the half-maximal effective concentration (EC50) is 3.24 µM and the concentration for half-maximal inhibition (IC50) came to 93.3 µM. In the same order, the values of `COC(=O)c1ccc2c(O)c(O)ccc2c1` are > 200 µM and 3.16 µM. Turning to `Cc1c(-c2cc3n(n2)C(c2cccs2)C(C#N)=C(c2ccccc2)N3)c(=O)n(-c2ccccc2)n1C` (stereo unspecified), the outcome was inactive.

Turning to `Cc1ccc(NC(=O)NC(=O)c2ccc([N+](=O)[O-])cc2[N+](=O)[O-])cc1Oc1ncc(Cl)cn1`, the outcome was inactive. `Cn1c(N=[N+]=[N-])cc(=O)n(C)c1=O`: the result was inactive. On to `O=C1NCCCCCCCCNC(=O)c2cccc1c2`, for which the EC50 is > 13.8 µM and the IC50 was > 13.8 µM. On to `CC1(C2=CCCCC2)CCC(=O)NC1=O` (stereo unspecified), for which the EC50 is > 200 µM and the concentration for half-maximal inhibition (IC50) was > 200 µM. For `COC(=O)c1cc(C(=CCC(=O)N[C@H]2CC[C@@]3(C)[C@@H](CC[C@@H]4[C@@H]3CC[C@]3(C)[C@@H]([C@H](C)CCCC(C)C)CC[C@@H]43)C2)c2cc(Cl)c(OC)c(C(=O)OC)c2)cc(Cl)c1OC`, the EC50 is > 200 µM and the IC50 was > 200 µM.

Consider `Clc1ccc2c(c1)[nH]c1c2nc2ccccn21`, for which the EC50 is > 30.2 µM; the IC50 was 29.5 µM and > 25.7 µM.

On to `C/C(=N/NC(=S)Nc1ccc(C)cc1)c1ccccn1`, for which the EC50 was > 0.2 µM and the IC50 is 0.0794 µM.

For the compound `Cc1ccc([N+](=O)[O-])cc1NC(=O)C(=O)Cc1occc(=O)c1O`, the result was inactive. Consider `CN(/N=C/c1cccs1)c1ccc(Cl)cc1[N+](=O)[O-]`, for which the EC50 is > 200 µM and the IC50 was found to be 60.3 µM. On to `CCN(CC)Cc1ccccc1CC(=O)N1c2ccccc2C(=O)Nc2cccnc21`, for which the EC50 was > 200 µM and the IC50 was > 200 µM. Turning to `CC(=O)/C(=C/c1cccc(C#N)c1)C(=O)c1ccccc1`, the EC50 is > 36.3 µM and the half-inhibitory concentration (IC50) worked out at 17.4 µM. `N=C(N)SCc1ccc(N=C=S)cc1`: the EC50 is > 200 µM and the 50% inhibitory concentration (IC50) came out at 83.2 µM. For `Cc1c2c(n(CCN(C)C)c1C)NN=C(C#N)S2(=O)=O`, in that order: > 200 µM and > 200 µM.

Turning to `CC(C)C12OC1CC13OC1C1OC1C1OC132` (stereo unspecified), the EC50 is > 200 µM and the 50% inhibitory concentration (IC50) was > 200 µM. Consider `N.N.N.O=[N+]([O-])[O-].O=[N+]([O-])[O-].O=[N+]([O-])[O-].O=[N+]([O-])[O-].[Co+3]`, for which the EC50 was > 692 µM and the IC50 was 117 µM. In the case of `N#Cc1c(N2CCCC2)ncn(Cc2ccccc2)c1=O`, the EC50 is > 200 µM and the concentration for half-maximal inhibition (IC50) was > 200 µM. `CCOC(=O)c1[nH]cc(C)c1-c1ccc2c(-c3ccccc3)nc3ccccc3n12`: the EC50 is > 200 µM and the 50% inhibitory concentration (IC50) is 3.16 µM. For `Cc1cn(C2CC(N=[N+]=[N-])C(COC(=O)CCCCCCCCCCOc3ccccc3)O2)c(=O)[nH]c1=O` (stereo unspecified), the EC50 was 0.0468 µM and the 50% inhibitory concentration (IC50) is 110 µM.

For the compound `O=C1N(c2ccccc2)N=C(c2ccccc2)C12CC2`, the EC50 is > 200 µM and the half-inhibitory concentration (IC50) was determined as 107 µM. With `COc1cc2cnc3c4cc(O)ccc4ccc3c2cc1OC`, the EC50 is > 85.1 µM and the IC50 amounted to 44.7 µM.

As for `COc1cc(C=O)c(-c2c(C=O)ccc3c2OCO3)c(OC)c1OC`, the EC50 was > 135 µM and the IC50 was found to be 20 µM. For `Cc1nc(C)c(N2CCN(C(=O)O)CC2)c(=O)[nH]1`, in that order: > 200 µM and > 200 µM. For `Cc1cc(O)c2c(=O)c(=O)c2c1`, the EC50 was > 1550 µM and the concentration for half-maximal inhibition (IC50) came out at 275 µM. As for `Cc1ccc(C2(c3ccc(Cl)cc3)c3ccccc3C3=NCCN32)cc1` (stereo unspecified), the EC50 was > 200 µM and the IC50 came out at 11 µM. For `O=C(O)[C@@H]1CSC(c2cccc(F)c2)N1` (stereo partly specified), the EC50 was > 200 µM and the IC50 is > 200 µM. Compound `CCCCNC(=O)Sc1ccccc1C(=O)N[C@H](C)C(N)=O` yielded an EC50 of 1.12 µM and an IC50 of 112 µM. In the same order, the values of `CCCC1C(=O)N2C(N(C)C)=Nc3ccc(C)cc3N2C1=O` (stereo unspecified) are > 832 µM and 457 µM. Take `COc1cc(N(CCC#N)CCC#N)ccc1/C=C1\SC(=S)NC1=O`: the EC50 is > 200 µM and the IC50 was > 200 µM. With `O=C1OC2=C(c3ccccc3)C(=O)OC2=C1c1ccccc1`, the outcome was inactive. With `O=C(N/C(=C\c1ccc(/C=C(\NC(=O)c2ccccc2)c2nc3cc([N+](=O)[O-])ccc3[nH]2)cc1)c1nc2cc([N+](=O)[O-])ccc2[nH]1)c1ccccc1`, the result was inactive. As to `Cc1c2c(Cl)c3c(c(Cl)c2c(C)c2c(Cl)c4c(c(Cl)c12)C(c1ccccc1)(c1ccccc1)C4(c1ccccc1)c1ccccc1)C(c1ccccc1)(c1ccccc1)C3(c1ccccc1)c1ccccc1`, the EC50 is > 100 µM and the concentration for half-maximal inhibition (IC50) is > 100 µM.
